Results reported in the supplement of paper PMC10883282.

How the values were obtained:
Assay in all cases: relative viability vs DMSO control (72 h) (fraction); higher = more viable cells
A204 = system: A204
Method in brief: (§1)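 Percent growth from ATPLite readings, averaged over up to triplicate wells, was used as relative viability. Sarcoma cell lines were seeded into 384-well plates for 80–90% confluence, dosed after 24 h, and kept 72 h at 37 °C, 5% CO2. Data were rescaled to a range where 1 is full and 0 is none.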

G401 = system: G401
Method in brief: as §1

SYO-1 = system: SYO-1
Method in brief: as §1

SW982 = system: SW982
Method in brief: as §1

SW1353 = system: SW1353
Method in brief: as §1

HT1080 = system: HT1080
Method in brief: as §1

KHOS-NP = system: KHOS-NP
Method in brief: as §1

SW684 = system: SW684
Method in brief: as §1

RD-ES = system: RD-ES
Method in brief: as §1

KHOS-240S = system: KHOS-240S
Method in brief: as §1

SK-ES-1 = system: SK-ES-1
Method in brief: as §1

SW872 = system: SW872
Method in brief: as §1

CC[C@@H]1C(=O)N(C)c2cnc(Nc3ccc(C(=O)N[C@H]4CC[C@H](N5CCN(CC6CC6)CC5)CC4)cc3OC)nc2N1C(C)C [Volasertib]
Details | relative viability
A204, 0.00017 µM | 1.13
A204, 0.00051 µM | 1.1
A204, 0.00152 µM | 1.07
A204, 0.00457 µM | 1.1
A204, 0.01372 µM | 1.08
A204, 0.04115 µM | 0.858
A204, 0.1235 µM | 0.669
A204, 0.3704 µM | 0.418
A204, 1.111 µM | 0.253
A204, 3.333 µM | 0.174
A204, 10 µM | 0.0197
G401, 0.00017 µM | 1.01
G401, 0.00051 µM | 1.03
G401, 0.00152 µM | 1.05
G401, 0.00457 µM | 1.03
G401, 0.01372 µM | 1.02
G401, 0.04115 µM | 0.845
G401, 0.1235 µM | 0.5129
G401, 0.3704 µM | 0.427
G401, 1.111 µM | 0.338
G401, 3.333 µM | 0.243
G401, 10 µM | 0.00683
HT1080, 0.00017 µM | 1.057
HT1080, 0.00051 µM | 1.06
HT1080, 0.00152 µM | 1.06
HT1080, 0.00457 µM | 1.04
HT1080, 0.01372 µM | 1.03
HT1080, 0.04115 µM | 0.9978
HT1080, 0.1235 µM | 0.239
HT1080, 0.3704 µM | 0.13
HT1080, 1.111 µM | 0.139
HT1080, 3.333 µM | 0.0909
HT1080, 10 µM | 0.00783
KHOS-240S, 0.00017 µM | 1.07
KHOS-240S, 0.00051 µM | 1.054
KHOS-240S, 0.00152 µM | 1.06
KHOS-240S, 0.00457 µM | 1.06
KHOS-240S, 0.01372 µM | 0.979
KHOS-240S, 0.04115 µM | 0.319
KHOS-240S, 0.1235 µM | 0.221
KHOS-240S, 0.3704 µM | 0.189
KHOS-240S, 1.111 µM | 0.171
KHOS-240S, 3.333 µM | 0.122
KHOS-240S, 10 µM | 0.0197
KHOS-NP, 0.00017 µM | 1.07
KHOS-NP, 0.00051 µM | 1.06
KHOS-NP, 0.00152 µM | 1.07
KHOS-NP, 0.00457 µM | 1.08
KHOS-NP, 0.01372 µM | 1.09
KHOS-NP, 0.04115 µM | 1.01
KHOS-NP, 0.1235 µM | 0.471
KHOS-NP, 0.3704 µM | 0.276
KHOS-NP, 1.111 µM | 0.222
KHOS-NP, 3.333 µM | 0.184
KHOS-NP, 10 µM | 0.0214
RD-ES, 0.00017 µM | 1.02
RD-ES, 0.00051 µM | 1
RD-ES, 0.00152 µM | 1.01
RD-ES, 0.00457 µM | 1.028
RD-ES, 0.01372 µM | 0.987
RD-ES, 0.04115 µM | 0.447
RD-ES, 0.1235 µM | 0.0248
RD-ES, 0.3704 µM | 0.0217
RD-ES, 1.111 µM | 0.0279
RD-ES, 3.333 µM | 0.0346
RD-ES, 10 µM | 0.0126
SK-ES-1, 0.00017 µM | 1.09
SK-ES-1, 0.00051 µM | 1.1
SK-ES-1, 0.00152 µM | 1.08
SK-ES-1, 0.00457 µM | 1.1
SK-ES-1, 0.01372 µM | 1.05
SK-ES-1, 0.04115 µM | 0.495
SK-ES-1, 0.1235 µM | 0.0483
SK-ES-1, 0.3704 µM | 0.0522
SK-ES-1, 1.111 µM | 0.0871
SK-ES-1, 3.333 µM | 0.114
SK-ES-1, 10 µM | 0.0116
SW684, 0.00017 µM | 1.19
SW684, 0.00051 µM | 1.21
SW684, 0.00152 µM | 1.22
SW684, 0.00457 µM | 1.17
SW684, 0.01372 µM | 1.13
SW684, 0.04115 µM | 0.694
SW684, 0.1235 µM | 0.675
SW684, 0.3704 µM | 0.731
SW684, 1.111 µM | 0.675
SW684, 3.333 µM | 0.6025
SW684, 10 µM | 0.0835
SW872, 0.00017 µM | 1.06
SW872, 0.00051 µM | 1.03
SW872, 0.00152 µM | 1.05
SW872, 0.00457 µM | 1.08
SW872, 0.01372 µM | 1.06
SW872, 0.04115 µM | 0.623
SW872, 0.1235 µM | 0.437
SW872, 0.3704 µM | 0.269
SW872, 1.111 µM | 0.176
SW872, 3.333 µM | 0.0454
SW872, 10 µM | 0.00513
SW982, 0.00017 µM | 1.047
SW982, 0.00051 µM | 1.07
SW982, 0.00152 µM | 1.08
SW982, 0.00457 µM | 1.06
SW982, 0.01372 µM | 1.01
SW982, 0.04115 µM | 0.353
SW982, 0.1235 µM | 0.259
SW982, 0.3704 µM | 0.209
SW982, 1.111 µM | 0.182
SW982, 3.333 µM | 0.15
SW982, 10 µM | 0.0111
SW1353, 0.00017 µM | 0.972
SW1353, 0.00051 µM | 0.954
SW1353, 0.00152 µM | 0.945
SW1353, 0.00457 µM | 0.949
SW1353, 0.01372 µM | 0.958
SW1353, 0.04115 µM | 0.902
SW1353, 0.1235 µM | 0.635
SW1353, 0.3704 µM | 0.52
SW1353, 1.111 µM | 0.4419
SW1353, 3.333 µM | 0.3712
SW1353, 10 µM | 0.063
SYO-1, 0.00017 µM | 0.966
SYO-1, 0.00051 µM | 0.974
SYO-1, 0.00152 µM | 0.958
SYO-1, 0.00457 µM | 0.912
SYO-1, 0.01372 µM | 0.549
SYO-1, 0.04115 µM | 0.352
SYO-1, 0.1235 µM | 0.311
SYO-1, 0.3704 µM | 0.131
SYO-1, 1.111 µM | 0.00893
SYO-1, 3.333 µM | -0.0446
SYO-1, 10 µM | -0.0423
